Measurements published in US20030232986A1, “Inhibitors of caspases” (Vertex Pharmaceuticals Incorporated, priority 1998, published 2003).
pIC50, pKi: −log10 of the molar value. Read-outs that look alike come from different tables or passages of the source. Where a SMILES comes first, the peptide text is derived from it. [ ]: non-standard residue; d: D form. The star is where a group is joined. Aze = O=C(O)[C@@H]1CCN1; Bz = O=C(c1ccccc1)*

Tests used:
[1] = target: T1, Caspase-1 (Homo sapiens, UniProt P29466); test: Caspase-1 enzyme inhibition (Ki); format: biochemical
T1 sequence (P29466 120-297 limits assumed): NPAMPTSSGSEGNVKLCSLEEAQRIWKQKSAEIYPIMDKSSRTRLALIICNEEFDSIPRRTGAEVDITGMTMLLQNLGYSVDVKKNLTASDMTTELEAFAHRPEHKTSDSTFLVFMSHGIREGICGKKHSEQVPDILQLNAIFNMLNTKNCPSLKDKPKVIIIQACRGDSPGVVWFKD
T1 sequence (P29466 317-404 limits assumed): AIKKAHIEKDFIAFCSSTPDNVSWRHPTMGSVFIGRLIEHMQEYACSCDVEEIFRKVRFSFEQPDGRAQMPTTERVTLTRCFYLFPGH
Procedure, shortened: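 Ki obtained by fitting rate versus inhibitor concentration to the Morrison tight-binding equation for competitive inhibitors, with pNA release read at 405 nm at 37 °C. Substrate Suc-YVAD-pNA (80 μM final) added after 15 min enzyme–inhibitor preincubation in Tris pH 7.5 buffer with DTT and CHAPS.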

[2] = tested on: Human Peripheral Blood Mononuclear Cells (PBMC), mature IL-1β; test: PBMC cell assay: IL-1β assay with human peripheral blood mononuclear cells; format: cell-based; conditions: LPS-stimulated human PBMC, mature IL-1β in supernatant by ELISA
Description: IL-1β Assay with a Mixed Population of Human Peripheral Blood Mononuclear Cells (PBMC) or Enriched Adherent Mononuclear Cells
Processing of pre-IL-1β by ICE can be measured in cell culture using a variety of cell sources. Human PBMC obtained from healthy donors provides a mixed population of lymphocyte subtypes and mononuclear cells that produce a spectrum of interleukins and cytokines in response to many classes of physiological stimulators. Adherent mononuclear cells from PBMC provides an enriched source of normal monocytes for selective studies of cytokine production by activated cells.
An initial dilution series of test compound in DMSO or ethanol is prepared, with a subsequent dilution into RPMI-10% FBS media (containing 2 mM L-glutamine, 10 mM HEPES, 50 U and 50 ug/ml pen/strep) respectively to yield drugs at 4× the final test concentration containing 0.4% DMSO or 0.4% ethanol. The final concentration of DMSO is 0.1% for all drug dilutions. A concentration titration which brackets the apparent Ki for a test compound determined in an ICE inhibition assay is generally used for the primary compound screen.
Generally 5-6 compound dilutions are tested and the cellular component of the assay is performed in duplicate, with duplicate ELISA determinations on each cell culture supernatant.
Buffy coat cells isolated from one pint human blood (yielding 40-45 ml final volume plasma plus cells) are diluted with media to 80 ml and LeukoPREP separation tubes (Becton Dickinson) are each overlaid with 10 ml of cell suspension. After 15 min centrifugation at 1500-1800×g, the plasma/media layer is aspirated and then the mononuclear cell layer is collected with a Pasteur pipette and transferred to a 15 ml conical centrifuge tube (Corning). Media is added to bring the volume to 15 ml, gently mix the cells by inversion and centrifuge at 300×g for 15 min. The PBMC pellet is resuspended in a small volume of media, the cells are counted and adjusted to 6×10^6 cells/ml.
For the cellular assay, 1.0 ml of the cell suspension is added to each well of a 24-well flat bottom tissue culture plate (Corning), 0.5 ml test compound dilution and 0.5 ml LPS solution (Sigma #L-3012; 20 ng/ml solution prepared in complete RPMI media; final LPS concentration 5 ng/ml). The 0.5 ml additions of test compound and LPS are usually sufficient to mix the contents of the wells. Three control mixtures are run per experiment, with either LPS alone, solvent vehicle control, and/or additional media to adjust the final culture volume to 2.0 ml. The cell cultures are incubated for 16-18 hr at 37° C. in the presence of 5% CO2.
At the end of the incubation period, cells are harvested and transferred to 15 ml conical centrifuge tubes. After centrifugation for 10 min at 200×g, supernatants are harvested and transferred to 1.5 ml Eppendorf tubes. It may be noted that the cell pellet may be utilized for a biochemical evaluation of pre-IL-1β and/or mature IL-1β content in cytosol extracts by Western blotting or ELISA with pre-IL-1β specific antisera.
PBMC are isolated and prepared as described above. Media (1.0 ml) is first added to wells followed by 0.5 ml of the PBMC suspension. After a one hour incubation, plates are gently shaken and nonadherent cells aspirated from each well. Wells are then gently washed three times with 1.0 ml of media and final resuspended in 1.0 ml media. The enrichment for adherent cells generally yields 2.5-3.0×10^5 cells per well. The addition of test compounds, LPS, cell incubation conditions and processing of supernatants proceeds as described above.
Quantikine kits (R&D Systems) may be used for the measurement of mature IL-1β. Assays are performed according to the manufacturer's directions. Mature IL-1β levels of about 1-3 ng/ml in both PBMC and adherent mononuclear cell positive controls are observed. […]

[3] = tested on: Human whole blood, IL-1β production; test: Whole blood assay for IL-1β production; format: cell-based; conditions: LPS-stimulated whole blood, IL-1β by ELISA
Protocol: The whole blood assay is a simple method for measuring the production of IL-1β (or other cytokines) and the activity of potential inhibitors. The complexity of this assay system, with its full complement of lymphoid and inflammatory cell types, spectrum of plasma proteins and red blood cells is an ideal in vitro representation of human in vivo physiologic conditions.
Set incubator or water bath at 30° C. Aliquot 0.25 ml of blood into 1.5 ml eppendorf tubes. Note: be sure to invert the whole blood sample tubes after every two aliquots. Differences in replicates may result if the cells sediment and are not uniformly suspended. Use of a positive displacement pipette will also minimize differences between replicate aliquots.
Prepare drug dilutions in sterile pyrogen-free saline by serial dilution. A dilution series which brackets the apparent Ki for a test compound determined in an ICE inhibition assay is generally used for the primary compound screen. For extremely hydrophobic compounds, prepare compound dilutions in fresh plasma obtained from the same blood donor or in PBS-containing 5% DMSO to enhance solubility.
Add 25 μl test compound dilution or vehicle control and gently mix the sample. Then add 5.0 μl LPS solution (250 ng/ml stocked prepared fresh: 5.0 ng/ml final concentration LPS), and mix again. Incubate the tubes at […] in a water bath for 16-18 hr with occasional mixing. Alternatively, the tubes can be placed in a rotator set at 4 rpm for the same incubation period. This assay should be set up in duplicate or triplicate with the following controls: negative control—no LPS; positive control—no test inhibitor; vehicle control—the highest concentration of DMSO or compound solvent used in the experiment. Additional saline is added to all control tubes to normalize volumes for both control and experimental whole blood test samples.
After the incubation period, whole blood samples are centrifuged for 10 minutes at ^˜2000 rpm in the microfuge, plasma is transferred to a fresh microfuge tube and centrifuged at 1000×g to pellet residual platelets if necessary. Plasma samples may be stored frozen at −70° C. prior to assay for cytokine levels by ELISA.
R & D Systems (614 McKinley Place N.E. Minneapolis, Minn. 55413) Quantikine kits may be used for measurement of IL-1β and TNF-α. The assays are performed according to the manufacture's directions. IL-1β levels of ^˜1-5 ng/ml in positive controls among a range of individuals may be observed. A 1:200 dilution of plasma for all samples is usually sufficient for experiments for ELISA results to fall on the linear range of the ELISA standard curves. It may be necessary to optimize standard dilutions if you observe differences in the whole blood assay. Nerad, J. L. et al., J. Leukocyte Biol., 52, pp. 687-692 (1992).

[4] = substrate Suc-YVAD-pNA 80 μM, 37° C., pH 7.5

Row | Compound | pKi [1] | pKi [1, 4] | pIC50 [2] | pIC50 [3]
1 | CC(C)[C@H](NC(=O)c1cccc2c1Cc1ccccc1-2)C(=O)N1CCC[C@H]1C(=O)N[C@H](C=O)CC(=O)O [Example 5j] | > 8.00 | > 8.00 | < 5.70 | < 5.12
2 | CC(C)[C@H](NC(=O)c1cccc2c1-c1ccccc1C2)C(=O)N1CCC[C@H]1C(=O)N[C@H](C=O)CC(=O)O [Example 5i] | > 8.00 | > 8.00 | 5.70 to 6.00 | < 5.12
3 | O=C[C@H](CC(=O)O)NC(=O)[C@@H]1CCCN1C(=O)[C@H](Cc1cccnc1)NC(=O)c1cc(Cl)c(O)c(Cl)c1 [Example 20n] |  | > 8.00 | 6.00 to 6.30 | > 5.60
4 | CC(C)Oc1cccc(C(=O)N[C@@H](C)C(=O)N2CCC[C@H]2C(=O)N[C@H](C=O)CC(=O)O)c1 [Example 122h, 3-({1-[2-(3-Isopropoxy-benzoylamino)-propionyl]-pyrrolidine-2-carbonyl}-amino)-4-oxo-butyric acid] |  | 6.00 to 8.00 | 5.70 to 6.00 | > 5.60
5 | C[C@H](NC(=O)c1cccc2ccccc12)C(=O)N1CCC[C@H]1C(=O)N[C@H](C=O)CC(=O)O [Example 7a] |  | > 8.00 | < 5.70 | 5.12 to 5.60
6 | CC(C)[C@H](NC(=O)c1ccccc1)C(=O)N1CC[C@H]1C(=O)N[C@H](C=O)CC(=O)O [Example 24d] (Bz-Val-[Aze]-Asp-aldehyde) |  | 6.00 to 8.00 | 6.00 to 6.30 | 5.12 to 5.60
7 | COC(=O)N[C@@H]1C[C@@H](C(=O)N[C@H](C=O)CC(=O)O)N(C(=O)[C@@H](NC(=O)c2nccc3ccccc23)C(C)C)C1 [Example 9f] |  | > 8.00 | 6.00 to 6.30 | > 5.60
8 | C[C@H](NC(=O)c1ccc(N(C)C)cc1)C(=O)N1CCC[C@H]1C(=O)N[C@H](C=O)CC(=O)O [Example 7s] |  | 6.00 to 8.00 | 6.00 to 6.30 | 5.12 to 5.60
9 | Cc1cc(C(=O)N[C@H](C(=O)N2CCNCC2C(=O)N[C@H](C=O)CC(=O)O)C(C)C)cc(C)c1O (stereo partly drawn) [Example 15a] |  | > 8.00 | < 5.70 | 5.12 to 5.60
10 | COc1cc(C(=O)N[C@H](C(=O)N2CCC[C@H]2C(=O)N[C@H](C=O)CC(=O)O)C(C)C)cc(OC)c1O [Example 5n] | > 8.00 | > 8.00 | 6.00 to 6.30 | 5.12 to 5.60
11 | CC[C@H](NC(=O)c1nccc2ccccc12)C(=O)N1CCC[C@H]1C(=O)N[C@H](C=O)CC(=O)O [Example 20e] |  | > 8.00 | 5.70 to 6.00 | 5.12 to 5.60
12 | CS(=O)(=O)C[C@H](NC(=O)c1ccc(N)c(Cl)c1)C(=O)N1CCC[C@H]1C(=O)N[C@H](C=O)CC(=O)O [Example 20t] |  | 6.00 to 8.00 | 6.00 to 6.30 | > 5.60
13 | CC(C(=O)N[C@H](C(=O)N1CCC[C@H]1C(=O)N[C@H](C=O)CC(=O)O)C(C)C)c1ccc(C(=O)c2cccs2)cc1 (stereo partly drawn) [Example 5aj] | 6.00 to 8.00 | 6.00 to 8.00 | 6.00 to 6.30 | < 5.12
14 | C[C@H](NC(=O)c1cccc(N(C)C)c1)C(=O)N1CCC[C@H]1C(=O)N[C@H](C=O)CC(=O)O [Example 7n] |  | 6.00 to 8.00 | 6.00 to 6.30 | > 5.60
15 | CC(C)[C@H](NC(=O)c1cc2ccccc2[nH]1)C(=O)N1CCC[C@H]1C(=O)N[C@H](C=O)CC(=O)O [Example 5b] |  | > 8.00 | 6.00 to 6.30 | > 5.60
16 | CC(C)[C@H](NC(=O)c1ccc2ncccc2c1)C(=O)N1CCC[C@H]1C(=O)N[C@H](C=O)CC(=O)O [Example 5ad] | > 8.00 | > 8.00 | > 6.30 | > 5.60
17 | CC(=O)Nc1c(Cl)cc(C(=O)N[C@@H](C)C(=O)N2CCC[C@H]2C(=O)N[C@H](C=O)CC(=O)O)cc1Cl [Example 7z] |  | 6.00 to 8.00 | 5.70 to 6.00 | > 5.60
18 | C[C@H](NC(=O)c1ccccn1)C(=O)N1CCC[C@H]1C(=O)N[C@H](C=O)CC(=O)O [Example 122e] |  | 6.00 to 8.00 | 5.70 to 6.00 | 5.12 to 5.60
19 | COc1cc(C(=O)N[C@@H](C)C(=O)N2CCC[C@H]2C(=O)N[C@H](C=O)CC(=O)O)cc(Cl)c1O [Example 7o] |  | > 8.00 | > 6.30 | > 5.60
20 | CS(=O)(=O)C[C@H](NC(=O)c1nccc2ccccc12)C(=O)N1CCC[C@H]1C(=O)N[C@H](C=O)CC(=O)O [Example 20r, 3-[(1-{2-[(isoquinoline-1-carbonyl)-amino]-3-methanesulfonyl-propionyl}-pyrrolidine-2-carbonyl)-amino]-4-oxo-butyric acid] |  | 6.00 to 8.00 | 6.00 to 6.30 | 5.12 to 5.60
21 | C[C@H](NC(=O)c1cnc2ccccc2n1)C(=O)N1CCC[C@H]1C(=O)N[C@H](C=O)CC(=O)O [Example 122j, 4-Oxo-3-[(1-{2-[(quinoxaline-2-carbonyl)-amino]-propionyl}-pyrrolidine-2-carbonyl) -amino]-butyric acid] |  | 6.00 to 8.00 | < 5.70 | 5.12 to 5.60
22 | COc1ccc(C(=O)N[C@H](C(=O)N2CCC[C@H]2C(=O)N[C@H](C=O)CC(=O)O)C(C)C)cc1OCc1ccccc1 [Example 5aa] | > 8.00 | > 8.00 | 6.00 to 6.30 | > 5.60
